# Reference: patent US11312712B2, “Azabenzimidazoles and their use as AMPA receptor modulators” (Janssen Pharmaceutica NV, priority 2015, dated 2022)
# Target: GluA1o-γ8 (GRIA1o-CACNG8 fusion construct) (Homo sapiens (Human), UniProt P42261+Q8WXS5)
# Experiment: Calcium flux assay (FLIPR), inhibition of TARP γ8 dependent AMPA receptor activity
# Assay type: cell-based
# Conditions: GluA1o-γ8 (GRIA1o-CACNG8 fusion) in HEK293 cells, calcium flux after 15 μM glutamate
# Source text: This assay was used to test compounds for their ability to inhibit TARP γ8 dependent AMPA receptor activity. The AMPA receptor is a non-selective cation channel activated by glutamate. Ionotropic glutamate receptors normally desensitize too rapidly to allow detectable calcium influx in a FLIPR assay (Strange et al. (2006). “Functional characterisation of homomeric ionotropic glutamate receptors GluR1-GluR6 in a fluorescence-based high throughput screening assay.” Comb Chem High Throughput Screen 9(2): 147-158). But, this desensitization is incomplete, and a substantial steady-state current remains in the sustained presence of glutamate (Cho et al. (2007). “Two families of TARP isoforms that have distinct effects on the kinetic properties of AMPA receptors and synaptic currents.” Neuron 55(6): 890-904).
# An in vitro assay was used to determine the potency of test compounds as inhibitors of the glutamate response of the channel formed by GluA1o-γ8. To ensure a 1:1 stoichiometry of GluA1o and γ8 subunits in the expressed channel, a fusion of the cDNAs for GRIA1o and CACNG8 was used. Following Shi et al (2009) “The stoichiometry of AMPA receptors and TARPs varies by neuronal cell type.” Neuron 62(5): 633-640), the C-terminus of the cDNA for GRIA1o was fused to the N-terminus of the cDNA for γ8. The linker sequence was QQQQQQQQQQEFAT. Channels expressed with this construct appear to have similar properties to channels formed by co-expression of GRIA1o with an excess of CACNG8 (Shi et al. 2009). A clonal cell line in HEK293 cells stably expressing this construct, with a geneticin selection marker, was generated for use in this assay.
# Cell expressing the GRIA1o-CACNG8 fusion construct were grown in a monolayer in 96- or 384-well microtiter plates. They were washed with assay buffer (135 mM NaCl, 4 mM KCl, 3 mM CaCl2, 1 mM MgCl2, 5 mM glucose, 10 mM HEPES, pH 7.4, 300 mOs) using a Biotek EL405 plate washer. The cells were then loaded with a calcium-sensitive dye (Calcium-5 or Calcium-6, Molecular Devices) and the test compounds at a range of concentrations. Calcium flux following the addition of 15 μM glutamate was monitored using a Molecular Devices FLIPR Tetra. The fluorescence in each well was normalized to the fluorescence of negative and positive control wells. The negative control wells had no added compounds, and the positive control wells had been incubated with 10 μM CP465022 (a non-subtype-selective AMPA receptor antagonist) (Lazzaro et al. (2002). “Functional characterization of CP-465,022, a selective, noncompetitive AMPA receptor antagonist.” Neuropharmacology 42(2): 143-153). The responses to glutamate as functions of the test compound concentrations were fitted to a four-parameter logistic function. The fitted parameter corresponding to the midpoint was taken to be the potency of inhibition of the compound. The data in Table 4 below illustrates the observed potentcy for the compounds described herein. pIC50 refers to the negative log of the IC50 in molar.
# GluA1o-γ8 (GRIA1o-CACNG8 fusion construct), sequence (P42261 other isoform, or with tags, fused parts or gaps): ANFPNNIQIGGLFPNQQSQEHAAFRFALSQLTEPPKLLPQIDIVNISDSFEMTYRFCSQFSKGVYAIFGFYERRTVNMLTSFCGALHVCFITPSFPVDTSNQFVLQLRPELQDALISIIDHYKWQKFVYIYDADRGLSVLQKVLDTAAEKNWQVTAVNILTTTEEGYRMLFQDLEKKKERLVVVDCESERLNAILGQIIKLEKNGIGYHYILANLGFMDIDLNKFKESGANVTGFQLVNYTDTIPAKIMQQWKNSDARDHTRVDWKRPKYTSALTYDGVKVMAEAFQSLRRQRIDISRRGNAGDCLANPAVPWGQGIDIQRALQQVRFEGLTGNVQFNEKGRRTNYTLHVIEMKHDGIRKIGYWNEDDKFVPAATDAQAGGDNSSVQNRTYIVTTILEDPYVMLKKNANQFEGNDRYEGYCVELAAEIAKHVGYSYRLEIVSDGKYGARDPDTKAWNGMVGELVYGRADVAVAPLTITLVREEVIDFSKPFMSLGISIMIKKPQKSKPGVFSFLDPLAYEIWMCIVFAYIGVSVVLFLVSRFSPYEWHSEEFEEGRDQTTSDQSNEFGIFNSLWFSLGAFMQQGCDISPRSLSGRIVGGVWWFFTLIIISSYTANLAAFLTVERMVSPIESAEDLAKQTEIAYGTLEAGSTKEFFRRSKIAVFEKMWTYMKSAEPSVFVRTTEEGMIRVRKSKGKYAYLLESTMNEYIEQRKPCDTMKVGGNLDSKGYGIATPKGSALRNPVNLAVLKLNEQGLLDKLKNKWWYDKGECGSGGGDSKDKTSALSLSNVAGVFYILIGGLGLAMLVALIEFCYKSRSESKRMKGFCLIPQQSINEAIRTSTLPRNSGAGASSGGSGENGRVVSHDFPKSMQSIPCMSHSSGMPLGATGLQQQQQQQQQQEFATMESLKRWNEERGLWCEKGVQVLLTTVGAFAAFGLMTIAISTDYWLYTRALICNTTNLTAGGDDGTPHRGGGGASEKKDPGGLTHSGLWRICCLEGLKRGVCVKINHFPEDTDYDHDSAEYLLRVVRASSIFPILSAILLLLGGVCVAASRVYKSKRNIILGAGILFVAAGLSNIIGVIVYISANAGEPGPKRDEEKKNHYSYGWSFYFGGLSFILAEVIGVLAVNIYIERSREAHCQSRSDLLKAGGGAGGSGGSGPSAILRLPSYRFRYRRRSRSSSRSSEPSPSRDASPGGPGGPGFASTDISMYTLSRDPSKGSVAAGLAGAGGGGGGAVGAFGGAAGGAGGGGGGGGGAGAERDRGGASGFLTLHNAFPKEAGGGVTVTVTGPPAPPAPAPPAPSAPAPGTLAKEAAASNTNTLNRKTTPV
row,IC50,SMILES
1,63.1 nM,"O=C1Cc2cc(-n3c(C4CCOCC4)nc4ccc(C(F)(F)F)nc43)ccc2N1 [Example 50, 5-[2-Tetrahydropyran-4-yl-5-(trifluoromethyl)imidazo[4,5-b]pyridin-3-yl]indolin-2-one]"
2,10 nM,"CC(C)Cc1nc2ccc(C(F)(F)F)nc2n1-c1ccc2c(c1)CC(=O)N2 [Example 51, 5-[2-Isobutyl-5-(trifluoromethyl)imidazo[4,5-b]pyridin-3-yl]indolin-2-one]"
3,79.4 nM,"O=C1Cc2cc(-n3c(CCC(F)(F)F)nc4ccc(C(F)(F)F)nc43)ccc2N1 [Example 53, 5-[5-(Trifluoromethyl)-2-(3,3,3-trifluoropropyl)imidazo[4,5-b]pyridin-3-yl]indolin-2-one]"
4,6.31 nM,"O=C1Cc2cc(-n3c(CC4CCCC4)nc4ccc(C(F)(F)F)nc43)ccc2N1 [Example 54, 5-[2-(Cyclopentylmethyl)-5-(trifluoromethyl)imidazo[4,5-b]pyridin-3-yl]indolin-2-one]"
5,7.94 nM,"O=C1Cc2cc(-n3c(C4CC4)nc4ccc(C(F)(F)F)nc43)ccc2N1 [Example 55, 5-[2-Cyclopropyl-5-(trifluoromethyl)imidazo[4,5-b]pyridin-3-yl]indolin-2-one]"
6,15800 nM,"O=C1Cc2cc(-n3c(Cc4cnccn4)nc4ccc(C(F)(F)F)nc43)ccc2N1 [Example 57, 5-[2-(Pyrazin-2-ylmethyl)-5-(trifluoromethyl)imidazo[4,5-b]pyridin-3-yl]indolin-2-one]"
7,12.6 nM,"FC(F)(F)c1ccc2nc(C3CCCC3)n(-c3ccc4[nH]ccc4c3)c2n1 [Example 58, 2-Cyclopentyl-3-(1H-indol-5-yl)-5-(trifluoromethyl)imidazo[4,5-b]pyridine]"
8,251 nM,"CC(C)(C)c1nc2ccc(C(F)(F)F)nc2n1-c1ccc2[nH]ccc2c1 [Example 59, 2-tert-Butyl-3-(1H-indol-5-yl)-5-(trifluoromethyl)imidazo[4,5-b]pyridine]"
9,2 nM,"O=C1Cc2cc(-n3c(C4CCCC4)nc4ccc(C(F)(F)F)nc43)ccc2N1 [Example 60, 5-[2-Cyclopentyl-5-(trifluoromethyl)imidazo[4,5-b]pyridin-3-yl]indolin-2-one]"
10,12.6 nM,"CC(C)(C)c1nc2ccc(C(F)(F)F)nc2n1-c1ccc2c(c1)CC(=O)N2 [Example 61, 5-[2-tert-Butyl-5-(trifluoromethyl)imidazo[4,5-b]pyridin-3-yl]indolin-2-one]"
11,6.31 nM,"Fc1ccc(-c2nc3c(N4CCOCC4)ccnc3n2-c2ccc3[nH]ncc3c2)cc1 [Example 62, 4-[2-(4-Fluorophenyl)-3-(1H-indazol-5-yl)imidazo[4,5-b]pyridin-7-yl]morpholine]"
12,3.16 nM,"O=C1Cc2cc(-n3c(-c4ccc(F)cc4)nc4c(N5CCOCC5)ccnc43)ccc2N1 [Example 63, 5-[2-(4-Fluorophenyl)-7-morpholino-imidazo[4,5-b]pyridin-3-yl]indolin-2-one]"
13,5.01 nM,"O=c1[nH]c2ccc(-n3c(-c4ccccc4)nc4ccc(N5CCCCC5)nc43)cc2s1 [Example 64, 6-[2-Phenyl-5-(1-piperidyl)imidazo[4,5-b]pyridin-3-yl]-3H-1,3-benzothiazol-2-one]"
14,316 nM,"O=c1[nH]c2ccc(-n3c(-c4ccccc4)nc4ccc(N5CCOCC5)nc43)cc2s1 [Example 65, 6-(5-Morpholino-2-phenyl-imidazo[4,5-b]pyridin-3-yl)-3H-1,3-benzothiazol-2-one]"
15,12.6 nM,"CN(C)c1ccc2nc(-c3ccccc3)n(-c3ccc4[nH]c(=O)sc4c3)c2n1 [Example 66, 6-[5-(Dimethylamino)-2-phenyl-imidazo[4,5-b]pyridin-3-yl]-3H-1,3-benzothiazol-2-one]"
16,0.1 nM,"O=c1[nH]c2ccc(-n3c(-c4ccccc4)nc4ccc(C(F)F)nc43)cc2s1 [Example 67, 6-(5-(Difluoromethyl)-2-phenyl-3H-imidazo[4,5-b]pyridin-3-yl)benzo[d]thiazol-2(3H)-one]"
17,25.1 nM,"O=c1[nH]c2ccc(-n3c(-c4ccc(C(F)F)cc4)nc4cccnc43)cc2s1 [Example 68, 6-[2-[4-(Difluoromethyl)phenyl]imidazo[4,5-b]pyridin-3-yl]-3H-1,3-benzothiazol-2-one]"
18,1.26 nM,"O=c1[nH]c2ccc(-n3c(-c4ccccc4)nc4c(C(F)F)ccnc43)cc2s1 [Example 69, 6-[7-(Difluoromethyl)-2-phenyl-imidazo[4,5-b]pyridin-3-yl]-3H-1,3-benzothiazol-2-one]"
19,0.631 nM,"CC(C)c1ccnc2c1nc(-c1ccccc1)n2-c1ccc2[nH]c(=O)sc2c1 [Example 70, 6-(7-Isopropyl-2-phenyl-imidazo[4,5-b]pyridin-3-yl)-3H-1,3-benzothiazol-2-one]"
20,39.8 nM,"O=c1[nH]c2ccc(-n3c(-c4ccc(F)cc4)nc4ccc(CO)nc43)cc2s1 [Example 71, 6-(2-(4-Fluorophenyl)-5-(hydroxymethyl)-3H-imidazo[4,5-b]pyridin-3-yl)benzo[d]thiazol-2(3H)-one]"
21,25.1 nM,"Cc1cc(O)c2nc(-c3ccc(F)cc3)n(-c3ccc4[nH]c(=O)sc4c3)c2n1 [Example 72, 6-(2-(4-Fluorophenyl)-7-hydroxy-5-methyl-3H-imidazo[4,5-b]pyridin-3-yl)benzo[d]thiazol-2(3H)-one]"
22,1260 nM,"O=C1Cc2cc(-n3c(CCCO)nc4ccc(C(F)(F)F)nc43)ccc2N1 [Example 73, 5-(2-(3-Hydroxypropyl)-5-(trifluoromethyl)-3H-imidazo[4,5-b]pyridin-3-yl)indolin-2-one]"
23,15.8 nM,"Cc1ccc2nc(C3CCC3)n(-c3ccc4c(c3)CC(=O)N4)c2n1 [Example 74, 5-(2-Cyclobutyl-5-methyl-imidazo[4,5-b]pyridin-3-yl)indolin-2-one]"
24,251 nM,"CCc1nc2ccc(C)nc2n1-c1ccc2c(c1)CC(=O)N2 [Example 75, 5-(2-Ethyl-5-methyl-imidazo[4,5-b]pyridin-3-yl)indolin-2-one]"
25,501 nM,"CC1(c2nc3ccc(C(F)(F)F)nc3n2-c2ccc3c(c2)CC(=O)N3)COC1 [Example 76, 5-[2-(3-Methyloxetan-3-yl)-5-(trifluoromethyl)imidazo[4,5-b]pyridin-3-yl]indolin-2-one]"
26,251 nM,"COCCc1nc2ccc(C(F)(F)F)nc2n1-c1ccc2c(c1)CC(=O)N2 [Example 77, 5-[2-(2-Methoxyethyl)-5-(trifluoromethyl)imidazo[4,5-b]pyridin-3-yl]indolin-2-one]"
27,0.158 nM,"c1cc2[nH]ncc2cc1-n1c(C2CCC2)nc2ccc(C3CC3)nc21 [Example 78, 2-Cyclobutyl-5-cyclopropyl-3-(1H-indazol-5-yl)imidazo[4,5-b]pyridine]"
28,2 nM,"CC(C)c1nc2ccc(C3CC3)nc2n1-c1ccc2[nH]ncc2c1 [Example 79, 5-Cyclopropyl-3-(1H-indazol-5-yl)-2-isopropyl-imidazo[4,5-b]pyridine]"
29,2 nM,"O=c1[nH]c2ccc(-n3c(C4CCC4)nc4ccc(C(F)(F)F)nc43)cc2o1 [Example 80, 6-[2-Cyclobutyl-5-(trifluoromethyl)imidazo[4,5-b]pyridin-3-yl]-3H-1,3-benzoxazol-2-one]"
30,501 nM,"O=C(c1nc2ccc(C(F)(F)F)nc2n1-c1ccc2[nH]ncc2c1)N1CCC1 [Example 81, Azetidin-1-yl-[3-(1H-indazol-5-yl)-5-(trifluoromethyl)imidazo[4,5-b]pyridin-2-yl]methanone]"
